The source of these data is US20100261699A1, “N-PYRAZOLE-2-PYRIDINE CARBOXAMIDE DERIVATIVE” (Banyu Pharmaceutical Co., Ltd., priority 2007, published 2010).

SMILES strings stand for the structures. pEC50: −log10 of the molar value.

The assay concerns the target T1, recombinant human liver GK (Homo sapiens, UniProt P35557).
T1 construct: made in house; host or cells: E. coli
T1 sequence (P35557 1-466 isoform P35557-2): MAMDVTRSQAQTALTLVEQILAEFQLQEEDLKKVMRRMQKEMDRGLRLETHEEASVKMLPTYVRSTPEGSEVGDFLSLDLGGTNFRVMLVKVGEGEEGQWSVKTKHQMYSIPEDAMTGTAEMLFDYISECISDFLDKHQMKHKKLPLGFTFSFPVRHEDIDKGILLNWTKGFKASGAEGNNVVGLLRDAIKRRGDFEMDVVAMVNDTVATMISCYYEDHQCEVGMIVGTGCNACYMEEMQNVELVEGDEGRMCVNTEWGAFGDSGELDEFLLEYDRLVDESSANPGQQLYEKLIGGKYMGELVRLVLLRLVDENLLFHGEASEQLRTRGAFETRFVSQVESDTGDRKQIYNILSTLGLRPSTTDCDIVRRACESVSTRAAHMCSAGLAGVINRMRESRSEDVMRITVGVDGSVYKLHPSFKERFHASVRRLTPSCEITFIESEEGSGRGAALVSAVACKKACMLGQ
Put plainly: Glucokinase-activating effect (Thio-NADH production via G6PDH-coupled assay). Particulars: final glucose concentration 2.5 mM, 30° C.; for Emax: OD level of DMSO control taken as 100%. The format is biochemical. The protocol:
The excellent glucokinase-activating effect of the compound represented by the Formula (I) can be determined by a method described in references (e.g., Diabetes, Vol. 45, pp. 1671-1677, 1996, etc.) or by a method based on the same.
The glucokinase activity is determined not by directly measuring glucose-6-phosphate, but by measuring the level of Thio-NADH produced when a reporter enzyme, glucose-6-phosphate dehydrogenase, produces phosphogluconolactone from glucose-6-phosphate.
A recombinant human liver GK used in this assay was expressed in E. coli as a FLAG fusion protein, and then purified by ANTIFLAG M2 AFFIMTY GEL (Sigma).
The assay was carried out using a flat-bottom 96-well plate at 30° C. First, 69 μl of assay buffer (25 mM Hepes Buffer:pH=7.2, 2 mM MgCl2, 1 mM ATP, 0.5 mM TNAD, 1 mM dithiothreitol) was dispensed, and 1 μl of DMSO solution of the compound or DMSO as a control was added thereto. Subsequently, 20 μl of enzyme mixture (FLAG-GK, 20 U/ml G6PDH) that had been cooled in ice was dispensed, and 10 μl of 25 mM glucose, a substrate, was added thereto to initiate reaction (final glucose concentration=2.5 mM).
After the start of the reaction, an increase in the absorbance at 405 nm was measured for 12 minutes at 30 second intervals, and the increment for the first 5 minutes was used for evaluation of the compound. FLAG-GK was added so that the increment of absorbance in 5 minutes in the presence of 1% DMSO was from 0.04 to 0.06.
Taking the OD level of the DMSO control as 100%, the OD level of the test compound at different concentrations was determined From the OD level at each concentration, Emax (%) and EC50 (μM) were calculated and used as an index of the GK-activating ability of the compound.

With `CN(C)CCOc1ccc(Sc2ccc(Sc3nncn3C)nc2C(=O)Nc2ccn(C)n2)cc1` [Example 1, 3-({4-[2-(dimethylamino)ethoxy]phenyl}thio)-N-(1-methyl-1H-pyrazol-3-yl)-6-[(4-methyl-4H-1,2,4-triazol-3-yl)thio]pyridine-2-carboxamide], the Emax amounted to 890% and the pEC50 was 6.92.

Regarding `CCN(CC)CCOc1ccc(Sc2ccc(Sc3nncn3C)nc2C(=O)Nc2ccn(C)n2)cc1` [Example 2], the pEC50 is 6.70.

As for `Cn1ccc(NC(=O)c2nc(Sc3nncn3C)ccc2Sc2ccc(OCCN3CCCC3)cc2)n1` [Example 3], the pEC50 was 7.10.

`CN1CC(Oc2ccc(Sc3ccc(Sc4nncn4C)nc3C(=O)Nc3ccn(C)n3)cc2)C1` [Example 4, 3-({4-[(1-methylazetidin-3-yl)oxy]phenyl}thio)-N-(1-methyl-1H-pyrazol-3-yl)-6-[(4-methyl-4H-1,2,4-triazol-3-yl)thio]pyridine-2-carboxamide]: the pEC50 was 7.15.

Turning to `CCN1CC(Oc2ccc(Sc3ccc(Sc4nncn4C)nc3C(=O)Nc3ccn(C)n3)cc2)C1` [Example 5], the pEC50 is 6.92.

As to `CC(C)N1CC(Oc2ccc(Sc3ccc(Sc4nncn4C)nc3C(=O)Nc3ccn(C)n3)cc2)C1` [Example 6], the pEC50 is 6.82.

On to `CCN1CC(COc2ccc(Sc3ccc(Sc4nncn4C)nc3C(=O)Nc3ccn(C)n3)cc2)C1` [Example 7, 3-({4-[(1-ethylazetidin-3-yl)methoxy]phenyl}thio)-N-(1-methyl-1H-pyrazol-3-yl)-6-[(4-methyl-4H-1,2,4-triazol-3-yl)thio]pyridine-2-carboxamide], for which the Emax worked out at 930% and the pEC50 was 7.22.

For `CC(C)N1CC(COc2ccc(Sc3ccc(Sc4nncn4C)nc3C(=O)Nc3ccn(C)n3)cc2)C1` [Example 8, 3-({4-[(1-isopropylazetidin-3-yl)methoxy]phenyl}thio)-N-(1-methyl-1H-pyrazol-3-yl)-6-[(4-methyl-4H-1,2,4-triazol-3-yl)thio]pyridine-2-carboxamide], the Emax amounted to 960% and the pEC50 is 7.10.

`CN(C)CCOc1ccc(Sc2ccc(Sc3nncn3C)nc2C(=O)Nc2ccn(C)n2)cn1` [Example 9]: the Emax was 880% and the pEC50 was 6.74.
